Data on 28 compounds can be found in patent US9486455B2, “Compounds for modulating TRPV3 function” (HYDRA BIOSCIENCES, INC., priority 2007, dated 2016).

pIC50: −log10 of the molar value. Read-outs that look alike come from different tables or passages of the source.

Assay [1] concerns the target T1, human (h) TRPV3 (Homo sapiens, UniProt Q8NET8).
T1 construct: expressed in transfected cells; host or cells: HEK293/TREx, tetracycline-induced
T1 sequence (Q8NET8 1-790): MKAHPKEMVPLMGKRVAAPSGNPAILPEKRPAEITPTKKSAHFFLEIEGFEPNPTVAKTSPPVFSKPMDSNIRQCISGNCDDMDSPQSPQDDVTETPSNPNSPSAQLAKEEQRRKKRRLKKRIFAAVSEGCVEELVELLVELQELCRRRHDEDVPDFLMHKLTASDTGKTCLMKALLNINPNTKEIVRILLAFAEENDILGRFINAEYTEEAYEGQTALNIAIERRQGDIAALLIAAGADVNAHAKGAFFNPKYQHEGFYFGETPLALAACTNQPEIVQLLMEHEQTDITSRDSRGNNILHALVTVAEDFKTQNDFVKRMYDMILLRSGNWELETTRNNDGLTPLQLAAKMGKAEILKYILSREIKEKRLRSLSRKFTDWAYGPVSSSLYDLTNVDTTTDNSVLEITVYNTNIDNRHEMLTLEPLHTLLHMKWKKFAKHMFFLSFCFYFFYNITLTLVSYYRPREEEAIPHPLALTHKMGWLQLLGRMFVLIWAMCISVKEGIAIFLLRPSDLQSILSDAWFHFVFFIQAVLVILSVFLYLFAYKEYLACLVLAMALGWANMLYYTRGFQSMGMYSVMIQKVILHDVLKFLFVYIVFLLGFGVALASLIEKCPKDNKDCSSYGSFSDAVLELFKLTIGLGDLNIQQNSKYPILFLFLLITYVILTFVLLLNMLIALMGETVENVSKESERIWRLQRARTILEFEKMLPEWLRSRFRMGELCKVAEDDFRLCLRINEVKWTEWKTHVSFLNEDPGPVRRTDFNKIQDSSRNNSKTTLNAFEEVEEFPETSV
Kind of assay: Whole-cell patch clamp, human TRPV3-mediated currents. The format is cell-based. The text has this:
(§1) Whole-cell patch clamp experiments permit the detection of currents through the TRPV3 channel in the cell line described above. A glass electrode is brought into contact with a single cell and the membrane is then ruptured, permitting control of the voltage of the cell membrane and measurement of currents flowing across the membrane using the amplifier attached to the electrode. A perfusion system permits control of the extracellular solution, including the addition of blockers and activators of the current. The current can be activated by heating this solution to 28° C. or warmer or by addition of 20 μM 2-APB to the solution.
(§2) TRPV3 cells were induced 20-48 hours, removed from growth plates, and replated at low density (to attain good single-cell physical separation) on glass coverslips for measurement. In some cases, cells were grown in low density overnight on glass coverslips. Patch clamp recordings were made in the whole-cell mode with a holding potential of −40 mV. Every 5 seconds, a voltage ramp was applied from −120 to +100 mV, 400 ms in duration. Currents elicited were quantified at −80 mV and +80 mV. The internal solution consisted of 140 mM cesium aspartate, 10 mM EGTA, 2.27 mM MgCl2, 1.91 mM CaCl2 and 10 mM HEPES, pH to 7.2 with KOH; with 50 nM calculated free Ca^2+. External solution was Ringer's solution described above. Upon addition of 2-APB or upon heating of the extracellular solution as described above, TRPV3 current was induced only in TRPV3-expressing cells and not in parental HEK293 TREx cells. […] Removal of the stimulus caused most of the current to go away, and inhibitor addition could still inhibit this current. […]
(§3) P1 refers to the Phase 1 current for human (h) and rat (r) TRPV3, and P2 refers to the Phase 2 current for human (h) and rat (r) TRPV3.
(Patch clamp records ionic current or voltage across a cell membrane.)

The target of assay [2] is T2, rat (r) TRPV3 (Rattus norvegicus, UniProt Q4QYD9).
T2 construct: expressed in transfected cells
T2 sequence (Q4QYD9 1-791): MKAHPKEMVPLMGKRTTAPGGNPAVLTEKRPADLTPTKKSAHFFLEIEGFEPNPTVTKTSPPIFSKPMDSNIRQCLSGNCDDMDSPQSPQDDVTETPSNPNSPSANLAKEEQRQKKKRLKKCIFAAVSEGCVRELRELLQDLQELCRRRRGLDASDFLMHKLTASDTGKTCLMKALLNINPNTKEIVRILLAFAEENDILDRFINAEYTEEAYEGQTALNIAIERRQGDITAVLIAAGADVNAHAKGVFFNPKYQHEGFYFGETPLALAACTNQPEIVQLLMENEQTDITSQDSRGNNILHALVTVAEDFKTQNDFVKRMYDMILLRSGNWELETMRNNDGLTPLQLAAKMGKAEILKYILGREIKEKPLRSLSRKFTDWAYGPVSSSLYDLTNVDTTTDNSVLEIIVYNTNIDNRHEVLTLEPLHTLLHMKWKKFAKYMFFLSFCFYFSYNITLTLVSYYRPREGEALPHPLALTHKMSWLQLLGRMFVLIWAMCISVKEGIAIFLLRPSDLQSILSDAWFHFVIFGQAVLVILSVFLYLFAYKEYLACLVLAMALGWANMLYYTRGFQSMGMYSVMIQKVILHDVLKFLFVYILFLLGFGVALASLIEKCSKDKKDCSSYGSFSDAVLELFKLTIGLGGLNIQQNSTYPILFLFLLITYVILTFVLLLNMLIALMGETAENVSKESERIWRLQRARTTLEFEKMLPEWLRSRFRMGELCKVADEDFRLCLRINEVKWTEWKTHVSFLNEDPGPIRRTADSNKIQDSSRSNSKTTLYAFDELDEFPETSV
Kind of assay: Whole-cell patch clamp, rat TRPV3-mediated currents. Format: cell-based.
Text: as §1, §2, §3

Setting [3] is: Phase 1 inward current, read-out: P1 In (h).
Where [4] appears, read: Phase 1 outward current, read-out: P1 Out (h).
Where [5] appears, read: Phase 2 inward current, read-out: P2 In (h).
Where [6] appears, read: Phase 2 outward current, read-out: P2 Out (h).
Setting [7] is: Phase 1 inward current, read-out: P1 In (r).
[8] abbreviates: Phase 1 outward current, read-out: P1 Out (r).
[9] abbreviates: Phase 2 inward current, read-out: P2 In (r).
Setting [10] is: Phase 2 outward current, read-out: P2 Out (r).
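Also: compounds tested at concentrations up to 30 µM.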

Take `Cc1cccc(C)c1-n1c(/C=C/c2cc(Cl)ccc2O)nc2cnccc2c1=O` [Compound 20]: the pIC50 in assay [1] (setting [3]) is no less than 5.30; in assay [1] (setting [4]) it was no less than 5.00.
For `Cc1ccccc1-n1c(-c2ccoc2)nc2ccccc2c1=O` [Compound 4], the pIC50 in assay [1] (setting [3]) and in assay [1] (setting [5]) was no less than 5.00 throughout.
As for `COc1cccc(/C=C/c2nc3ccccc3c(=O)n2-c2c(C)cccc2OCCO)c1O` [Compound 48], the pIC50 in assay [1] (setting [3]) is no less than 6.30; in assay [1] (setting [4]), no less than 6.00; in assay [1] (setting [6]), no less than 6.00.
Regarding `CCOc1cccc(C=Cc2nc3cnccc3c(=O)n2-c2ccccc2C)c1O` [Compound 31], the pIC50 in assay [1] (setting [3]), in assay [1] (setting [4]), in assay [1] (setting [5]), in assay [1] (setting [6]), in assay [2] (setting [7]) and in assay [2] (setting [8]) was no less than 6.30 throughout.
Regarding `COc1cccc(NC(=O)Nc2nc3ccccc3c(=O)n2-c2c(C)cccc2C)c1O` [Compound 46], the pIC50 in assay [1] (setting [3]) and in assay [1] (setting [4]) was no less than 5.30 in each case.
As for `Cc1ccc(O)c(/C=C/c2nc3cnccc3c(=O)n2-c2c(C)cccc2C)n1` [Compound 23], the pIC50 in assay [1] (setting [3]) and in assay [1] (setting [4]) was no less than 5.00 in each case.
In the case of `COc1ccccc1-n1c(/C=C/c2cccc(OC)c2O)nc2ccccc2c1=O` [Compound 52], the pIC50 in assay [1] (setting [3]), in assay [1] (setting [4]), in assay [1] (setting [5]) and in assay [1] (setting [6]) was no less than 6.30 each time.
In the case of `COc1cccc(/C=C/c2nc3ccccc3c(=O)n2-c2c(C)cc(OCCO)cc2C)c1O` [Compound 1], the pIC50 in assay [1] (setting [3]) and in assay [1] (setting [5]) was no less than 6.00 throughout.
With `COc1cccc(/C=C/c2nc3ccccc3c(=O)n2-c2c(C)ccnc2C)c1O` [Compound 32], the pIC50 in assay [1] (setting [3]) is no less than 6.30; in assay [1] (setting [4]), no less than 6.30; in assay [1] (setting [5]), no less than 6.30; in assay [1] (setting [6]) it was no less than 6.30; in assay [2] (setting [7]), no less than 6.00; in assay [2] (setting [8]) it was no less than 6.00. Besides, the pIC50 in assay [2] (setting [9]) is no less than 6.30; in assay [2] (setting [10]) it was no less than 6.00.
On to `Cc1cccc(C)c1-n1c(/C=C/c2cc(OC(F)(F)F)ccc2O)nc2cnccc2c1=O` [Compound 21], for which the pIC50 in assay [1] (setting [3]) and in assay [1] (setting [4]) was no less than 5.00 in each case.
Regarding `COc1cccc(/C=C/c2nc3cnccc3c(=O)n2-c2c(C)cccc2C)n1` [Compound 24], the pIC50 in assay [1] (setting [3]) and in assay [1] (setting [4]) was no less than 5.00 throughout.
In the case of `COc1cccc(-n2c(/C=C/c3cccc(OC)c3O)nc3cnccc3c2=O)c1C` [Compound 17], the pIC50 in assay [1] (setting [3]), in assay [1] (setting [4]), in assay [1] (setting [5]) and in assay [1] (setting [6]) was no less than 5.00 in each case.
Turning to `COc1cccc(/C=C/c2nc3cnccc3c(=O)n2-c2c(C)cccc2Cl)c1O` [Compound 16], the pIC50 in assay [1] (setting [3]), in assay [1] (setting [4]), in assay [1] (setting [5]), in assay [1] (setting [6]), in assay [2] (setting [7]) and in assay [2] (setting [8]) was no less than 6.30 in each case. Further, the pIC50 in assay [2] (setting [9]) and in assay [2] (setting [10]) was no less than 6.30 in each case.
With `Cc1cccc(C)c1-n1c(/C=C/c2cnccc2O)nc2cnccc2c1=O` [Compound 29], the pIC50 in assay [1] (setting [3]) and in assay [1] (setting [4]) was no less than 5.00 throughout.
With `Cc1cccc(C)c1-n1c(/C=C/c2cc(Cl)cnc2O)nc2cnccc2c1=O` [Compound 22], the pIC50 in assay [1] (setting [3]) and in assay [1] (setting [4]) was no less than 5.00 in each case.
Consider `Cc1ccccc1-n1c(/C=C/c2nnn[nH]2)nc2ccccc2c1=O` [Compound 5], for which the pIC50 in assay [1] (setting [3]) and in assay [1] (setting [5]) was less than 5.00 throughout.
As for `COc1cccc(/C=C/c2nc3ccccc3c(=O)n2-c2c(C)cc(OCCN(C)C)cc2C)c1O` [Compound 3], the pIC50 in assay [1] (setting [3]) is no less than 5.00; in assay [1] (setting [5]), no less than 5.30.
On to `COc1nccc(/C=C/c2nc3cnccc3c(=O)n2-c2c(C)cccc2C)c1O` [Compound 15], for which the pIC50 in assay [1] (setting [3]), in assay [1] (setting [4]), in assay [1] (setting [5]), in assay [1] (setting [6]), in assay [2] (setting [7]) and in assay [2] (setting [8]) was no less than 6.30 in each case. The pIC50 in assay [2] (setting [9]) and in assay [2] (setting [10]) was no less than 6.30 throughout.
With `COc1cccc(/C=C(\C)c2nc3ccccc3c(=O)n2-c2ccccc2C)c1O` [Compound 2], the pIC50 in assay [1] (setting [3]) and in assay [1] (setting [5]) was no less than 5.30 in each case.
On to `COc1cccc(C=Cc2nc3ccccc3c(=O)n2-c2c(C)cccc2C)c1OP(=O)(O)O` [Compound 53], for which the pIC50 in assay [1] (setting [3]), in assay [1] (setting [4]), in assay [1] (setting [5]) and in assay [1] (setting [6]) was no less than 6.30 in each case.
`COc1cc(/C=C/c2nc3cnccc3c(=O)n2-c2c(C)cccc2C)ccn1` [Compound 26]: the pIC50 is no less than 5.00 in assay [1] (setting [3]) and no less than 5.30 in assay [1] (setting [4]).
Consider `COc1ccnc(/C=C/c2nc3ccccc3c(=O)n2-c2c(C)cccc2C)c1O` [Compound 39], for which the pIC50 in assay [1] (setting [3]), in assay [1] (setting [4]), in assay [1] (setting [5]) and in assay [1] (setting [6]) was no less than 5.00 each time.
`Cc1cccc(C)c1-n1c(/C=C/c2cccc3cn[nH]c23)nc2cnccc2c1=O` [Compound 10]: the pIC50 in assay [1] (setting [3]) and in assay [1] (setting [4]) was no less than 5.00 each time.
In the case of `Cc1cccc(C)c1-n1c(/C=C/c2cccc(OC(F)(F)F)c2O)nc2cnccc2c1=O` [Compound 12], the pIC50 in assay [1] (setting [3]), in assay [1] (setting [4]), in assay [1] (setting [5]), in assay [1] (setting [6]), in assay [2] (setting [7]) and in assay [2] (setting [8]) was no less than 6.30 throughout.
In the case of `COc1ccccc1-n1c(/C=C/c2cccc(OC)c2O)nc2cnccc2c1=O` [Compound 13], the pIC50 in assay [1] (setting [3]) and in assay [1] (setting [4]) was no less than 5.00 each time.
In the case of `COc1cccc(-n2c(/C=C/c3cccc(OC)c3O)nc3ccccc3c2=O)c1` [Compound 54], the pIC50 in assay [1] (setting [3]), in assay [1] (setting [4]), in assay [1] (setting [5]) and in assay [1] (setting [6]) was no less than 6.30 throughout.
As to `CCOc1cccc(/C=C/c2nc3cnccc3c(=O)n2-c2c(F)cccc2F)c1O` [Compound 18], the pIC50 in assay [1] (setting [3]) is no less than 6.30; in assay [1] (setting [4]) it was no less than 6.30; in assay [1] (setting [5]), no less than 6.30; in assay [1] (setting [6]) it was no less than 5.00.
As to `COc1cccc(/C=C/c2nc3cnccc3c(=O)n2-c2ccccc2C#N)c1O` [Compound 25], the figures for the pIC50 in assay [1] (setting [3]) and in assay [1] (setting [4]) were no less than 5.00 and no less than 5.30, respectively.
